Measured values as given in US11872210B2, “Thiol isomerases inhibitors and use thereof” (WESTERN NEW ENGLAND UNIVERSITY, priority 2017, dated 2024).

Columns and labels:
human washed platelets = experiment: Collagen stimulated platelet aggregation; assay type: cell-based; settings: collagen 1 μg/mL, 3 minutes
Protocol: Human Platelet Preparation: 50 mL of blood was drawn from drug free, consenting individuals, into a syringe containing 5 mL sodium citrate (4% w/v) and 7.5 mL warmed ACD (85 mM sodium citrate, 71 mM citric acid and 110 mM glucose). Blood was centrifuged at 102 g for 20 minutes to obtain platelet-rich plasma (PRP), which was then decanted and 104 prostacyclin (PGI2 125 μg/mL, solubilized in ethanol) added. Platelets were pelleted by centrifugation at 1413 g for 10 minutes, platelet poor plasma was discarded and the pellet resuspended in 25 mL Tyrode's-HEPES buffer (134 mM NaCl, 2.9 mM KCl, 0.34 mM Na2HPO4, 12 mM NaHCO3, 20 mM HEPES, 1 mM MgCl2 and 5 mM glucose pH 7.3), 3 mL of ACD and 10 μL PGI2 were added and then following centrifugation at 1413 g for 10 minutes, the platelet pellet was re-suspended to the appropriate cell density using Tyrode's buffer. Platelets were rested for 30 minutes at 30° C. to allow platelet responses to recover.
Platelet Aggregation: 445 μL of washed platelets at (4×10^8 cells/mL) were incubated for 5 minutes with vehicle (0.1% (v/v) DMSO) or 54 zafirlukast or montelukast. 50 μL of collagen 1 μg/mL (final), was added and light transmission monitored for 3 minutes at 37° C. with constant stirring (1200 rpm) using an aggregometer (Chronolog, USA).
Statistical analyses: All raw data was analyzed by 1-way ANOVA and where appropriate normalized to vehicle. GraphPad Prism was used to perform statistical analysis by ANOVA or students T test. The level of significance of p values is as follows, *p<0.05,**p<0.01, ***p<0.005. Data presented are mean+/−standard error of the mean.
Zafirlukast inhibits platelet aggregation: Human washed platelets (4×10^8 cells/mL) were pre-treated with 0.1 μM-10 μM zafirlukast or vehicle. Platelets were stimulated with collagen 1 μg/mL and allowed to aggregate for 3 minutes. Aggregation traces representative of the response were obtained and dose responses compared.

ERp57 = biological target: T1, ERp57 (Homo sapiens, UniProt P30101); experiment: Insulin-based turbidometric assay of thiol isomerase inhibitory activity (ERp57); assay type: biochemical; settings: specificity assay, insulin turbidity
T1 construct: purchased AbCam (Cambridge Mass.)
T1 sequence (P30101 25-505): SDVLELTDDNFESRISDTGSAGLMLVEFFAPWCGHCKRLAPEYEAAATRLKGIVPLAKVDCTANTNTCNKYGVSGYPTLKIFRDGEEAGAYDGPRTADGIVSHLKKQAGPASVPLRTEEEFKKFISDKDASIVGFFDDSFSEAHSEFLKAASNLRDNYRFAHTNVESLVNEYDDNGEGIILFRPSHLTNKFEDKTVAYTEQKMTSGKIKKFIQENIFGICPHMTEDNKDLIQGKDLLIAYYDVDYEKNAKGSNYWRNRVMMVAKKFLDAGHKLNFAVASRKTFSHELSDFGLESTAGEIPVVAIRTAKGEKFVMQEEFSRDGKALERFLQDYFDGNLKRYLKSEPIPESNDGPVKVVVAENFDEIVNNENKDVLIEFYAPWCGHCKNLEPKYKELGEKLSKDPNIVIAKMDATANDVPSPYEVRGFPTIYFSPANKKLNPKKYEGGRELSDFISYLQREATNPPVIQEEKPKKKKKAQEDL

Structure (SMILES) | platelet aggregation, normalized to vehicle (human washed platelets; 10 μM) [%] | inhibition at 2.5 µM (human washed platelets; Homo sapiens, Platelet, 0.05 h, 2.5 μM) [%] | inhibition at 3.75 µM (human washed platelets; Homo sapiens, Platelet, 0.05 h, 3.75 μM) [%] | inhibition at 5 µM (human washed platelets; Homo sapiens, Platelet, 0.05 h, 5 μM) [%] | inhibition at 10 µM (human washed platelets; Homo sapiens, Platelet, 0.05 h, 10 μM) [%] | specificity among thiol isomerases (ERp57)
CC(C)(O)c1ccccc1CC[C@@H](SCC1(CC(=O)O)CC1)c1cccc(/C=C/c2ccc3ccc(Cl)cc3n2)c1 [montelukast, [R-(E)]-1-[[[1-[3-[2-(7-chloro-2-quinolinyl)ethenyl]phenyl]-3-[2-(7-chloro-2-quinolinyl)ethenyl]phenyl]-3-[2-(1-hydroxy-1-methylethyl)phenyl]propyl]thio]methyl cyclopropane acetic acid] | 3.99±0.800 | 62.1 | 83.6 | 90.6 | 96.1 | –
CC(C)(C=O)Cc1cc(C(C)(C)C)c(O)c(C(C)(C)C)c1 [CGP-13501] | – | – | – | – | – | specific for ERp57
